Assay results as given in patent US8481458B2, “Adjuvant for pesticides” (priority 2002, dated 2013).

What was measured:
Alternaria solani = test: Fungicide for control of Early Blight on tomatoes; assay type: in vivo; conditions: tomato plants innoculated with the fungi; ratings after one week
Text: The tomato plants were innoculated with the fungi. The ratings were made after one week on the percent leaves infected with Alternaria and also the number with bad damage—necrosis.

Xanthomonas campestris = test: Bactericide on bacterial leaf spot on tomatoes; assay type: in vivo; conditions: tomato plants innoculated with the bacteria; ratings after two weeks
Text: The tomato plants were innoculated with the bacteria. […] The ratings were made after two weeks on the percent leaves infected.

[1] = tested on: fireblight on Southern Crepe Myrtle; test: Streptomycin for control of fireblight on Southern Crepe Myrtle; conditions: infected plants sprayed until wet; ratings after two days
Eastern Tent caterpillar = test: Ingestion insecticide sprayed on the tent; assay type: in vivo; conditions: evaluated 1 day after application
Method: This test involved the evaluation of an ingestion insecticide on the Eastern Tent caterpillar. The insecticide was mixed in a tank at the shown rate and sprayed on the tent, and the evaluation was performed after 1 day following application.

potato vines = test: Dessication of potato vines before harvest (speed); assay type: in vivo; conditions: for Defol %: at the time printed in column Hour; for Hour: time at which the printed Defol % was seen
Text: This example was used to how various permeabilizers are able to improve the speed in which various active components are able to obtain their desired effects on treated plants. In this example, a combination of oxalic acid and citric acid (Adjuvant 1) was used in combination with the harvest aid chemicals paraquat and diquat for the dessication of potato vines before harvest and compared to the commercial rates paraquat and diquat.

cotton = test: Cotton defoliation with oxalic acid, EDTA, citric acid as adjuvants, field plots; assay type: in vivo; conditions: Day 7 after spraying, test size field plots
Method: Oxalic acid (Adj II), EDTA (Adj III), and citric acid (Adj IV) were used as an adjuvants with harvest aid chemicals and compared to the commercial products ethephon and ethephon plus cyclanilide. The comparison was for defoliation only at 7 days after spraying on cotton. The tests were conducted on test size field plots, at dosages of 1 pound or 0.5 pounds per acre (#/ac).

N#Cc1c(Cl)c(Cl)c(Cl)c(C#N)c1Cl [Chlorothalonil 2.5 pt/ac, chlorothalonil]
Infected Leaflets (Alternaria solani): 60%
Infected Leaves (Alternaria solani): 42%
Leaflets with >50% Necrosis (Alternaria solani): 42%

[Cu+2].[OH-].[OH-] [Copper 2#/acre, copper hydroxide]
Percent Leaves Infected (Xanthomonas campestris): 63%

[H]/N=C(/N)N[C@H]1[C@H](O)[C@@H](O)[C@H](O[C@@H]2O[C@@H](C)[C@](O)(C=O)[C@H]2O[C@@H]2O[C@@H](CO)[C@H](O)[C@@H](O)[C@@H]2NC)[C@@H](N/C(N)=N\[H])[C@@H]1O [Streptomycin, streptomycin]
Level Required for Control [1]: 60 ppm

CS/C(C)=N\OC(=O)N(C)SN(C)C(=O)O/N=C(\C)SC [Thiodicarb 0.1%, Thiodicarb]
Insecticide Efficacy (Eastern Tent caterpillar): 32%

c1cc[n+]2c(c1)-c1cccc[n+]1CC2 [diquat 2 qt/ac, diquat]
Defol % (potato vines): 96%
Hour (potato vines): 24 h

O=P(O)(O)CCCl [eth 1#/ac, ethephon]
Defol % (cotton): 72%

C[n+]1ccc(-c2cc[n+](C)cc2)cc1 [paraquat 2 qt/ac, paraquat]
Defol % (potato vines): 98%
Hour (potato vines): 36 h
